Measured values from patent publication US7223781B2 (Beiersdorf AG, priority 2001, dated 2007).
pIC50: −log10 of the molar value. Where two headings read alike, the source gives them in different places. One block for each molecule: values may come before it.

Target: T1, COX-1 (Sus scrofa, UniProt A0A287ANF9)
T1 construct: A platelet suspension obtained from pig's blood is preincubated with the test substance; endogenous in cells; host or cells: platelets from pig's blood
Assay: In-vitro test for COX-1 inhibition: fluorimetric quantification of malonaldehyde (MDA) in A23187-activated pig platelet suspension
Assay type: cell-based
Settings: for IC50: read-out: MDA pIC50 (converted)
Protocol: In-vitro Test Procedure for the Determination of COX-1 Inhibition
The inhibition of the cyclooxygenase pathway is carried out by fluorimetric quantification of malonaldehyde (MA). This condenses in the acidic medium with twice the molar amount of thiobarbituric acid to give a red pigment dye, which has a fluorescence at λExcitation: 533 nm, λEmission: 550 nm.
A platelet suspension obtained from pig's blood is preincubated with the test substance for 10 min at 37° C. The concentration of the suspension should be 8×10^8 cells/ml. The arachidonic acid cascade is then activated by addition of the antibiotic calcium ionophore A23187 ([…]). After a further 10 min at 37° C., the reaction is stopped using a trichloroacetic acid solution. The samples are centrifuged and the supernatant is incubated with thiobarbituric acid for 30 min at 70° C. After cooling (30 min at room temperature), the samples are measured fluorimetrically at 533/550 nm and the IC50 values of the test compounds are determined therefrom by means of a calibration curve.

[1] = Table 8, arylsulfonamides, pig platelets, read-out: MDA IC50
[2] = Table 1, carbamic acid thioesters, pig platelets
[3] = Table 9, alkylamides, pig platelets
[4] = Table 9, alkylamides, pig platelets, read-out: MDA IC50
[5] = tables 1 to 17, read-out: IC50 values (inhibition of cyclooxygenase-1)
[6] = Table 7, arylamides, pig platelets
[7] = Table 7, arylamides, pig platelets, read-out: MDA IC50
[8] = Table 14, sulfones and their sulfide analogs, pig platelets, read-out: MDA IC50
[9] = Table 1, carbamic acid thioesters, pig platelets, read-out: MDA IC50
[10] = Table 11, heteroaryl- and naphthylamides, pig platelets
[11] = Table 5, heteroarylmethyl sulfides, pig platelets

T1 sequence (A0A287ANF9 25-600): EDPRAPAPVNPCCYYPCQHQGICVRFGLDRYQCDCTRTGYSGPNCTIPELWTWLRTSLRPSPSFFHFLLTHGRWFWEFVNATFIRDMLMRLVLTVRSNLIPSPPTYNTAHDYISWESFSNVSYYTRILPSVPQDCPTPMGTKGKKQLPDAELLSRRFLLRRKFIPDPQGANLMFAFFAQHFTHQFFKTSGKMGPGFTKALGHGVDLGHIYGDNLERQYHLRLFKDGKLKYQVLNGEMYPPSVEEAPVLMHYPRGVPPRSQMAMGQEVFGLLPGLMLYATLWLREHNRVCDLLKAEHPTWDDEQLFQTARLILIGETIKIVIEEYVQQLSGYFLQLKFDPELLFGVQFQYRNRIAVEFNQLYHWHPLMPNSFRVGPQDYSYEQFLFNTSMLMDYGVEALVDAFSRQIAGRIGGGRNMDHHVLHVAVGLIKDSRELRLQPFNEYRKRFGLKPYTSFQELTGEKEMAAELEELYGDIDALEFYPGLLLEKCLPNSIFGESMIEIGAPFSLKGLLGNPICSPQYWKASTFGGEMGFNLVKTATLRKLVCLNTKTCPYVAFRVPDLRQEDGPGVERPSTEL

Compound: COc1ccc(-c2nc(SCC(=O)c3ccc(Cl)cc3)[nH]c2-c2ccc(OC)cc2)cc1 [Compound T12]
pIC50 (Table 4, aryl ketones, pig platelets, read-out: MDA IC50): 7.34

Compound: COc1ccc(-c2nc(SC(=O)N(C(C)C)C(C)C)[nH]c2-c2ccc(OC)cc2)cc1 [Compound T3, [4,5-Bis(4-methoxyphenyl)-1H-imidazol-2-yl]-N,N-diisopropylcarbamic acid thioester]
IC50 [2]: 12 nM

Compound: CCOC(=O)CSc1nc(-c2ccc(OC)cc2)c(-c2ccc(OC)cc2)[nH]1 [Compound T79, Ethyl 2-[4,5-bis(4-methoxyphenyl)-1H-imidazol-2-ylsufanyl]acetate]
IC50 (Table 14, sulfones and their sulfide analogs, pig platelets): 12 nM

Compound: COc1ccc(-c2nc(SCCNC(=O)c3ccc(Cl)cc3Cl)[nH]c2-c2ccc(OC)cc2)cc1 [Compound T35, N^1-{2-[4,5-Bis(4-methoxyphenyl)-1H-imidazol-2-ylsufanyl]ethyl}-2,4-dichlorobenzamide]
IC50 [6]: 151 nM

Compound: COc1ccc(-c2[nH]c(SCCNC(=O)c3ccccc3)nc2-c2ccc(Cl)cc2)cc1 [Compound T110, N^1-{2-[4-(4-Chlorophenyl)-5-(4-methoxyphenv)-1H-imidazol-2-yl-sufanyl]ethyl}benzamide]
IC50 [6]: 3310 nM

Compound: COc1ccc(-c2nc(SCCNS(=O)(=O)c3ccc(C)cc3)[nH]c2-c2ccc(OC)cc2)cc1 [Compound T24, N^1-{2-[4,5-Bis(4-methoxyphenyl)-1H-imidazol-2-ylsufanyl]ethyl}-4-methylbenzenesulfonamide]
pIC50 [1]: 7.32

Compound: COc1ccc(-c2nc(SCCNC(=O)c3ccc([N+](=O)[O-])cc3)[nH]c2-c2ccc(OC)cc2)cc1 [Compound T40, N^1-{2-[4,5-Bis(4-methoxyphenyl)-1H-imidazol-2-ylsufanyl]ethyl}-4-nitro-benzamide]
pIC50 [7]: 7.09

Compound: COc1ccc(-c2nc(SCCNC(=O)c3ccc(C#N)cc3)[nH]c2-c2ccc(OC)cc2)cc1 [Compound T39, N^1-{2-[4,5-Bis(4-methoxyphenyl)-1H-imidazol-2ylsulfanyl]ethyl}-4-cyanobenzamide]
IC50 [6]: 141 nM

Compound: CN(C)C(=O)Sc1nc(-c2ccc(Cl)cc2)c(-c2ccccc2)[nH]1 [Compound T103, [4-(4-Chlorophenyl)-5-phenyl-1H-imidazol-2-yl]-N,N-dimethylcarbamic acid thioester]
pIC50 [9]: 5.14

Compound: COc1ccc(-c2nc(SCCNC(=O)c3cc(OC)c(OC)c(OC)c3)[nH]c2-c2ccc(OC)cc2)cc1 [Compound T46, N^1-{2-[4,5-Bis(4-methoxyphenyl)-1H-imidazol-2-ylsufanyl]ethyl}-3,4,5-trimethoxybenzamide]
pIC50 [7]: 6.19
IC50 [6]: 603 nM

Compound: COc1ccc(-c2nc(S(=O)(=O)Cc3ccccn3)[nH]c2-c2ccc(OC)cc2)cc1 [Compound T74, 2-[4,5-Bis(4-methoxyphenyl)-1H-imidazol-2-ylsulfonylmethyl]pyridine]
pIC50 [8]: 7.09

Compound: COc1ccc(-c2nc(SC(=O)N(C)C)[nH]c2-c2ccc(OC)cc2)cc1 [Compound T1, [4,5-Bis(4-methoxyphenyl)-1H-imidazol-2-yl]-N,N-dimethylcarbamic acid thioester]
pIC50 [9]: 7.15

Compound: COc1ccc(-c2nc(SCc3nc4ccccc4[nH]3)[nH]c2-c2ccc(OC)cc2)cc1 [Compound T73]
IC50 [11]: 389 nM

Compound: COc1ccc(-c2nc(SCCN(C)C)[nH]c2-c2ccc(OC)cc2)cc1 [Compound T14, N,N-Dimethyl-[4,5-bis(4-methoxyphenyl)-1H-imidazol-2-ylsulfanyl]-ethanamine]
MDA pIC50 (Table 3, amines, pig platelets): 5.49 M
pIC50 (Table 3, amines, pig platelets, read-out: MDA IC50): 5.49

Compound: COc1ccc(-c2nc(SCCNC(=O)c3ccccc3)[nH]c2-c2ccc(OC)cc2)cc1 [Compound T28, N^1-{2-[4,5-Bis(4-methoxyphenyl)-1H-imidazol-2-ylsufanyl]ethyl}benzamide]
pIC50 [7]: 6.27

Compound: COc1ccc(-c2nc(SCCC(=O)c3ccccc3)[nH]c2-c2ccc(OC)cc2)cc1 [Compound T13, 3-[4,5-Bis(4-methoxyphenyl)-1H-imidazol-2-ylsufanyl]-1-phenylpropan-1-one]
IC50 (Table 4, aryl ketones, pig platelets): 20.9 nM

Compound: COc1ccc(-c2nc(SC(=O)N3CCOCC3)[nH]c2-c2ccc(OC)cc2)cc1 [Compound T4, [4,5-Bis(4-methoxyphenyl)-1H-imidazol-2-yl]-morpholine-4-carbamic acid thioester]
IC50 [2]: 28.2 nM

The next lines start with the values.

pIC50 [1]: 7.30
Compound: COc1ccc(-c2nc(SCCNS(=O)(=O)c3ccccc3)[nH]c2-c2ccc(OC)cc2)cc1 [Compound T17, N^1-{2-[4,5-Bis(4-methoxyphenyl)-1H-imidazol-2-ylsufanyl]ethyl}benzene-sulfonamide]

IC50 [3]: 417 nM
Compound: COc1ccc(-c2nc(SCCNC(=O)C(C)(C)C)[nH]c2-c2ccc(OC)cc2)cc1 [Compound T52, N^1-{2-[4,5-Bis(4-methoxyphenyl)-1H-imidazol-2-ylsulfanyl]ethyl}-2,2-dimethylpropanamide]

pIC50 [4]: 8.06
pIC50 [5]: ~9.00
Compound: COc1ccc(-c2nc(SCCNC(=O)C(C)C)[nH]c2-c2ccc(OC)cc2)cc1 [Compound T51, N^1-{2-[4,5-Bis(4-methoxyphenyl)-1H-imidazol-2-ylsufanyl]ethyl}-2-methylpropanamide]

pIC50 (Table 13, urea derivatives, pig platelets, read-out: MDA IC50): 7.30
Compound: CCN(CC)C(=O)NCCSc1nc(-c2ccc(OC)cc2)c(-c2ccc(OC)cc2)[nH]1 [Compound T58, N^1-{2-[4,5-Bis(4-methoxyphenyl)-1H-imidazol-2-ylsulfanyl]ethyl}-N′,N′-diethylurea]

pIC50 [8]: 8.12
pIC50 [5]: ~9.00
Compound: CCOC(=O)CS(=O)(=O)c1nc(-c2ccc(OC)cc2)c(-c2ccc(OC)cc2)[nH]1 [Compound T80, Ethyl 2-[4,5-bis(4-methoxyphenyl)-1H-imidazol-2-ylsulfonyl]acetate]

IC50 [10]: 100 nM
Compound: COc1ccc(-c2nc(SCCNC(=O)c3cccs3)[nH]c2-c2ccc(OC)cc2)cc1 [Compound T54, N^1-{2-[4,5-Bis(4-methoxyphenyl)-1H-imidazol-2-ylsulfanyl]ethyl}thiophene-2-carboxamide]

pIC50 (Table 11, heteroaryl- and naphthylamides, pig platelets, read-out: MDA IC50): 6.25
Compound: COc1ccc(-c2nc(SCCNC(=O)c3cccc4ccccc34)[nH]c2-c2ccc(OC)cc2)cc1 [Compound T55, N^1-{2-[4,5-Bis(4-methoxyphenyl)-1H-imidazol-2-ylsulfanyl]ethyl}-1-naphthamide]

pIC50 [4]: 6.82
IC50 [3]: 151 nM
Compound: COc1ccc(-c2nc(SCCNC(=O)CCc3ccccc3)[nH]c2-c2ccc(OC)cc2)cc1 [Compound T60, N^1-{2-[4,5-Bis(4-methoxyphenyl)-1H-imidazol-2-ylsulfanyl]ethyl}-3-phenylpropanamide]

IC50 [10]: 39.8 nM
Compound: COc1ccc(-c2nc(SCCNC(=O)c3ccc4ccccc4c3)[nH]c2-c2ccc(OC)cc2)cc1 [Compound T56, N^1-{2-[4,5-Bis(4-methoxyphenyl)-1H-imidazol-2-ylsulfanyl]ethyl}-2-naphthamide]

IC50 [6]: 1000 nM
Compound: O=C(NCCSc1nc(-c2ccc(F)cc2)c(-c2ccc(F)cc2)[nH]1)c1ccccc1 [Compound T98, N^1-{2-[4,5-Bis(4-fluorophenyl)-1H-imidazol-2-ylsufanyl]ethyl}benzamide]

pIC50 [1]: 6.31
Compound: COc1ccc(-c2nc(SCCNS(=O)(=O)c3ccc(C(C)(C)C)cc3)[nH]c2-c2ccc(OC)cc2)cc1 [Compound T26, N^1-{2-[4,5-Bis(4-methoxyphenyl)-1H-imidazol-2-ylsufanyl]ethyl}-4-(tert-butyl)benzenesulfonamide]

IC50 [11]: 3.02 nM
pIC50 [5]: ~9.00
Compound: COc1ccc(-c2nc(SCc3ccncc3)[nH]c2-c2ccc(OC)cc2)cc1 [Compound T71, 4-[4,5-Bis(4-methoxyphenyl)-1H-imidazol-2-ylsulfanylmethyl]pyridine]

pIC50 [7]: 6.05
Compound: O=C(NCCSc1nc(-c2ccc(Cl)cc2)c(-c2ccccc2)[nH]1)c1ccccc1 [Compound T106, N^1-{2-[4-(4-Chlorophenyl)-5-phenyl-1H-imidazol-2-ylsufanyl]ethyl}benzamide]

pIC50 [4]: 7.27
Compound: COc1ccc(-c2nc(SCCNC(=O)Cc3ccccc3)[nH]c2-c2ccc(OC)cc2)cc1 [Compound T59, N^1-{2-[4,5-Bis(4-methoxyphenyl)-1H-imidazol-2-ylsulfanyl]ethyl}-2-phenylacetamide]

pIC50 (Table 10, alkylsulfonamides, pig platelets, read-out: MDA IC50): 7.12
Compound: COc1ccc(-c2nc(SCCNS(C)(=O)=O)[nH]c2-c2ccc(OC)cc2)cc1 [Compound T63, N^1-{2-[4,5-Bis(4-methoxyphenyl)-1H-imidazol-2-ylsulfanyl]ethyl}-methanesulfonamide]

IC50 (Table 10, alkylsulfonamides, pig platelets): 10 nM
Compound: COc1ccc(-c2nc(SCCNS(=O)(=O)C(C)C)[nH]c2-c2ccc(OC)cc2)cc1 [Compound T65, N^1-{2-[4,5-Bis(4-methoxyphenyl)-1H-imidazol-2-ylsulfanyl]ethyl}-propane-2-sulfonamide]

IC50 [6]: 110 nM
Compound: COc1ccc(-c2nc(SCCNC(=O)c3c(Cl)cccc3Cl)[nH]c2-c2ccc(OC)cc2)cc1 [Compound T36, N^1-{2-[4,5-Bis(4-methoxyphenyl)-1H-imidazol-2-ylsufanyl]ethyl}-2,6-dichlorobenzamide]
